The record followed here is paper PMC6271245, “Discovery of Gramine Derivatives That Inhibit the Early Stage of EV71 Replication in Vitro” (Molecules, 2014).

≈ marks a conversion by molar mass, not a printed value.

Data set [1] relates to EV71. The data set is described as follows: Direct inactivation of virions (virucidal test), TCID50 titration. It is filed as cell-based, Enterovirus 71. As to conditions: 10^4 TCID50 EV71 incubated with 20 µg/mL 4a, 40 µg/mL 4i, 80 µg/mL 4r or 4s for 24 h at 4 °C; data not shown. As for the experimental part: Based on structure specificity, antiviral activity, and selectivity therapeutic index, compounds 4a, 4i, 4r and 4s were chosen for further investigation on modes of action against EV71 infection. To determine whether these gramine derivatives inactivated virions directly, 10^4 TCID50 (median tissue culture infective dose) of EV71 suspension was incubated with 20 µg/mL 4a, 40 µg/mL 4i, or 80 µg/mL 4r or 4s for 24 h at 4 °C; subsequently, the virus titers in the mixture were measured by inoculating 100-fold dilution of the mixtures beyond the effective concentrations of the compounds into the host cells. The TCID50 values were calculated by the Reed-Muench method based on the CPE observed on day 2 post inoculation (pi). […] Thus, these compounds appear not to be virucidal for the viruses tested.
(§1) The virus suspension, serially diluted 10-fold with DMEM containing 2% FBS, was inoculated to cells in a 96-well plate. After 1 h incubation at 37 °C in 5% CO2, unbinding virus was washed out and MM was added to the cells. After 2 days, the infected cells were monitored for cytopathic effects (CPEs). The virus titer was calculated by the Reed–Muench method.

Data set [2] in a line: Cytotoxicity on uninfected RD cells, MTT. It is filed as cell-based. As to conditions: human, concentration reducing cell viability by 50%. As for the experimental part: Human RD cells and Vero cells were maintained in Dulbecco’s modified Eagle’s medium (Gibco-Invitrogen, Carlsbad, CA, USA) supplemented with 10% fetal bovine serum (FBS; Gibco), 100 U/mL of penicillin and streptomycin, and 2 mM L-glutamine. Enterovirus 71 (EV71) was kindly provided by Zhanqiu Yang (Institute of Medical Virology, School of Medicine, Wuhan University, China) and propagated in RD cell lines. The virus titer was determined by the standard method of median tissue culture infective dose (TCID50) on RD cells.
(§2) The activity of compounds against EV71 was determined based on the inhibition of virus-induced cytopathogenicity effects (CPEs) in acutely infected cells. Vero and RD cells grown to 90% confluency in 96-well dishes were washed with phosphate buffered saline (PBS) and infected with 100 TCID50 of EV71 mixed with serial dilutions of tested compounds for 1.5 h at 37 °C. The inoculum was aspirated and cells were incubated with DMEM and test compounds at 37 °C, 5% CO2 for 48 h. The CPEs were observed microscopically and the viability of the cells was determined with a 3-(4,5-dimethylthiazol-2-yl)-2,5-diphenyltetrazolium bromide (MTT) assay. The concentrations required for the test compounds to achieve 50% protection from virus-induced cytopathogenicity (EC50) were determined. Adverse effects of these compounds on the host cells were also assessed by means of the MTT-method; by exposing uninfected cells to various concentrations of test compounds for 48 h at 37 °C, the viability of the cells was detected. The 50% cell cytotoxic concentrations (CC50) of compounds were calculated with the SPSS software (SPSS, Chicago, IL, USA). Selectivity indexes were calculated as the ratio of CC50: EC50.
(§3) Cell viability was assessed by an MTT assay, which functions based on the reduction of a MTT into formazan dye by active mitochondria. The cells were treated with 100 µL of MTT (1 mg/mL, Sigma, St. Louis, MO, USA) and incubated at 37 °C for 4 h. The reaction was blocked by DMSO and measured in a microplate reader (Bio-Tek Instruments, Winooski, VT, USA) at 492 nm. The untreated control was arbitrarily set as 100%.

For data set [3], the system named is EV71. The data set is described as follows: Effect on EV71 release from RD cells. In kind it is cell-based, Enterovirus 71. To be noted: 10 µg/mL 4a, 20 µg/mL 4i, 40 µg/mL 4r or 4s after infection, supernatants and cells harvested together or separately at 12 h. The method, then: (§4) Figure 2 Analysis of modes of action against EV71 of gramine derivatives. Analysis of effective stage. The RD cells were treated with tested compounds before, simultaneously or after EV71 (100 TCID50) inoculation: antiviral effects were detected by measuring (A) cell viability and (B) progeny virus yields (10 µg/mL 4a, 20 µg/mL 4i, 40 µg/mL 4r and 4s) 48 h post infection; (C) Analysis of the effects on EV71 adsorption. Mock- or 10 µg/mL 4a, 20 µg/mL 4i, 40 µg/mL 4r and 4s-treated EV71 (10^4 TCID50) was spinoculated onto RD cells and adsorbed for 2 h; intracellular virus was subjected to titration using the TCID50 method; (D) Effects on EV71 release from RD cells. RD cells infected with 100 TCID50 of EV71 were incubated with 10 µg/mL 4a, 20 µg/mL 4i, 40 µg/mL 4r and 4s for 12 h, of both cells and supernatants (intra- and extracellular), or of cells or supernatants harvested separately for virus titration. […] Values represent the mean ± standard deviation of three independent experiments.
A possible effect of the compounds on viral release from cells was tested. The RD cells were treated with or without 10 µg/mL 4a, 20 µg/mL 4i, or 40 µg/mL 4r or 4s after EV71 infection, and the supernatants and cells were harvested together or separately for analysis of progeny virus yields at 12 h.
as §1

Data set [4] is described as follows: Cytotoxicity on uninfected Vero cells, MTT. In kind it is cell-based. As to conditions: African green monkey; concentration reducing cell viability by 50%; uninfected Vero cells, 48 h, MTT; read-out: CC50 (µg/mL) Vero. The method, then:
The antiviral activities of gramine and its derivatives against EV71 based on inhibition of virus-induced cytopathogenicity effects (CPEs) in African green monkey kidney cells (Vero) and rhabdomyosarcoma cells (RD) were examined. The cytotoxic effects were also evaluated. The inhibitory activities expressed as half maximal effective concentration (EC50) values and selectivity indexes (SI) for the target compounds are presented in Table 1, and the dose-dependent antiviral effects are shown in Figure 1A.
as §2, §3

The subject of data set [5] is EV71. The data set is described as follows: Effect on EV71 adsorption, intracellular virus titration. In kind it is cell-based, Enterovirus 71. As to conditions: EV71 (10^4 TCID50) treated with 10 µg/mL 4a, 20 µg/mL 4i, 40 µg/mL 4r or 4s, spinoculated onto RD cells, adsorbed 2 h. As for the experimental part:
Mock- or 10 µg/mL 4a, 20 µg/mL 4i, or 40 µg/mL 4r or 4s-treated EV71 (10^4 TCID50) were spinoculated onto cells and adsorbed for 2 h. The infected cells were harvested following freeze–thaw cycles and then subjected to virus titration.
as §4, §1

In the case of `c1ccc(C(Nc2ccccn2)c2c[nH]c3ccccc23)cc1` (centres unmarked) [Compound 4a], the “virus titers of mixture with vs without compound (virucidal effect)” value in data set [1] is “No significant difference in virus titers”. Further, the values for the CC50 at 48 h in data set [2] and in data set [4] were 17.2 ± 1.6 µg/mL (≈ 57.5 µM) and 32.6 ± 3.5 µg/mL (≈ 109 µM), respectively. Moreover, the “effect on release of EV71 from cells” value in data set [3] is on record as “no effect on the release of EV71”. Besides, the “intracellular virus titer during virus attachment” value in data set [5] is on record as “no significant decrease in virus titer”.

With `Cn1cc(C(Nc2ccccn2)c2ccc(F)cc2)c2ccccc21` (centres unmarked) [Compound 4i], the “virus titers of mixture with vs without compound (virucidal effect)” value in data set [1] was “No significant difference in virus titers”. Moreover, the CC50 at 48 h in data set [2] came to 65.2 ± 7.6 µg/mL (≈ 197 µM); in data set [4], 71.1 ± 3.8 µg/mL (≈ 215 µM). For the same compound, in data set [3], the “effect on release of EV71 from cells” value was “no effect on the release of EV71”. In addition, the “intracellular virus titer during virus attachment” value in data set [5] is recorded as “no significant decrease in virus titer”.

On to `Cn1cc(C(Nc2nc3ccccc3s2)c2ccccc2F)c2ccccc21` (centres unmarked) [Compound 4r], for which the “virus titers of mixture with vs without compound (virucidal effect)” value in data set [1] was “No significant difference in virus titers”. For the same compound, the CC50 at 48 h in data set [2] came to 150 ± 16.2 µg/mL (≈ 387 µM); in data set [4], 132 ± 8.3 µg/mL (≈ 342 µM). Besides, in data set [3], the “effect on release of EV71 from cells” value was “no effect on the release of EV71”. Besides, the “intracellular virus titer during virus attachment” value in data set [5] is given as “no significant decrease in virus titer”.

`c1ccc(C(Nc2nc3ccccc3s2)c2c[nH]c3ccccc23)nc1` (centres unmarked) [Compound 4s]: the “virus titers of mixture with vs without compound (virucidal effect)” value in data set [1] is on record as “No significant difference in virus titers”. Moreover, the CC50 at 48 h is 137 ± 9.3 µg/mL (≈ 383 µM) in data set [2] and 109 ± 16.8 µg/mL (≈ 305 µM) in data set [4]. In addition, the “effect on release of EV71 from cells” value in data set [3] was “no effect on the release of EV71”. Besides, the “intracellular virus titer during virus attachment” value in data set [5] is given as “no significant decrease in virus titer”.
